Reference: patent US8952024B2, “Herbicidal pyrimidone derivatives” (E I du Pont de Nemours and Company, priority 2009, dated 2015)

How the values were obtained:
Assay in all cases: Test D pre-/postemergence plant response
Format in all cases: in vivo
[1] = tested on: signalgrass (broadleaf signalgrass, Brachiaria platyphylla)
Outline: (§1)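 Under greenhouse conditions for 14 to 21 days, plants treated pre- or postemergence with surfactant-formulated compound were compared by eye with untreated controls and scored 0–100 (100 = complete control; dash = no result).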

[2] = tested on: guineagrass (Panicum maximum)
Outline: as §1

[3] = tested on: mallow (common mallow, Malva sylvestris)
Outline: as §1

[4] = tested on: johnsongrass (Sorghum halepense)
Outline: as §1

[5] = tested on: goosegrass (Eleusine indica)
Outline: as §1

[6] = tested on: dallisgrass (Paspalum dilatatum)
Outline: as §1

[7] = tested on: itchgrass (Rottboellia cochinchinensis)
Outline: as §1

[8] = tested on: nutsedge (purple nutsedge, Cyperus rotundus)
Outline: as §1

[9] = tested on: barnyardgrass (Echinochloa crus-galli)
Outline: as §1

[10] = tested on: bluegrass (annual bluegrass, Poa annua)
Outline: as §1

[11] = tested on: green foxtail (Setaria viridis)
Outline: as §1

[12] = tested on: quackgrass (Elytrigia repens)
Outline: as §1

[13] = tested on: purslane (common purslane, Portulaca oleracea)
Outline: as §1

[14] = tested on: ragweed (common ragweed, Ambrosia elatior)
Outline: as §1

[15] = tested on: sowthistle (common sowthistle, Sonchus oleraceous)
Outline: as §1

[16] = Postemergence, 16 g ai/ha, scale 0 to 100
[17] = Postemergence, 31 g ai/ha, scale 0 to 100
[18] = Postemergence, 125 g ai/ha, scale 0 to 100 (0 no effect, 100 complete control)
[19] = Postemergence, 62 g ai/ha, scale 0 to 100 (0 no effect, 100 complete control)
[20] = Preemergence, 16 g ai/ha, scale 0 to 100, 0 no effect, 100 complete control
[21] = Preemergence, 31 g ai/ha, scale 0 to 100 (0 no effect, 100 complete control)
[22] = Preemergence, 125 g ai/ha, scale 0 to 100
[23] = Preemergence, 62 g ai/ha, scale 0 to 100
[24] = Postemergence, 31 g ai/ha, scale 0 to 100 (0 no effect, 100 complete control)

`O=C1CCCC(O)=C1C(=O)c1cnc(-c2cccs2)n(-c2ccccc2)c1=O` [Compound 66] was tested, and the “Plant response rating, Signalgrass” value [1, 16] was 0, the “Plant response rating, Signalgrass” value [1, 17] was 10 and the “Plant response rating, Signalgrass” value [1, 18] was 30. For the same compound, the “Plant response rating, Signalgrass” value [1, 19] was 30, the “Plant response rating, Signalgrass” value [1, 20] was 0 and the “Plant response rating, Signalgrass” value [1, 21] was 5. The “Plant response rating, Signalgrass” value [1, 22] was 5, the “Plant response rating, Guineagrass” value [2, 16] was 5 and the “Plant response rating, Guineagrass” value [2, 17] was 5. For the same compound, the “Plant response rating, Guineagrass” value [2, 18] was 30, the “Plant response rating, Guineagrass” value [2, 19] was 10 and the “Plant response rating, Guineagrass” value [2, 20] was 0. The “Plant response rating, Guineagrass” value [2, 21] was 0, the “Plant response rating, Guineagrass” value [2, 23] was 0 and the “Plant response rating, Guineagrass” value [2, 22] was 65. For the same compound, the “Plant response rating, Mallow” value [3, 16] was 25, the “Plant response rating, Mallow” value [3, 17] was 30 and the “Plant response rating, Mallow” value [3, 18] was 60. For the same compound, the “Plant response rating, Mallow” value [3, 19] was 60, the “Plant response rating, Mallow” value [3, 20] was 0 and the “Plant response rating, Mallow” value [3, 21] was 0. For the same compound, the “Plant response rating, Mallow” value [3, 23] was 5, the “Plant response rating, Mallow” value [3, 22] was 75 and the “Plant response rating, Johnsongrass” value [4, 16] was 0. The “Plant response rating, Johnsongrass” value [4, 17] was 20, the “Plant response rating, Johnsongrass” value [4, 18] was 60 and the “Plant response rating, Johnsongrass” value [4, 19] was 50. The “Plant response rating, Johnsongrass” value [4, 20] was 0, the “Plant response rating, Johnsongrass” value [4, 21] was 0 and the “Plant response rating, Johnsongrass” value [4, 23] was 0. The “Plant response rating, Johnsongrass” value [4, 22] was 30, the “Plant response rating, Goosegrass” value [5, 16] was 50 and the “Plant response rating, Goosegrass” value [5, 17] was 50. The “Plant response rating, Goosegrass” value [5, 18] was 75, the “Plant response rating, Goosegrass” value [5, 19] was 65 and the “Plant response rating, Goosegrass” value [5, 20] was 0. For the same compound, the “Plant response rating, Goosegrass” value [5, 21] was 0, the “Plant response rating, Goosegrass” value [5, 23] was 30 and the “Plant response rating, Goosegrass” value [5, 22] was 50. The “Plant response rating, Dallisgrass” value [6, 16] was 35, the “Plant response rating, Dallisgrass” value [6, 17] was 35 and the “Plant response rating, Dallisgrass” value [6, 18] was 60. For the same compound, the “Plant response rating, Dallisgrass” value [6, 19] was 35, the “Plant response rating, Dallisgrass” value [6, 20] was 0 and the “Plant response rating, Dallisgrass” value [6, 21] was 5. The “Plant response rating, Dallisgrass” value [6, 23] was 5, the “Plant response rating, Dallisgrass” value [6, 22] was 95 and the “Plant response rating, Itchgrass” value [7, 16] was 10. The “Plant response rating, Itchgrass” value [7, 17] was 15, the “Plant response rating, Itchgrass” value [7, 18] was 40 and the “Plant response rating, Itchgrass” value [7, 19] was 35. The “Plant response rating, Itchgrass” value [7, 20] was 0, the “Plant response rating, Itchgrass” value [7, 21] was 0 and the “Plant response rating, Itchgrass” value [7, 23] was 0. The “Plant response rating, Itchgrass” value [7, 22] was 0, the “Plant response rating, Nutsedge, Purple” value [8, 16] was 0 and the “Plant response rating, Nutsedge, Purple” value [8, 17] was 5. For the same compound, the “Plant response rating, Nutsedge, Purple” value [8, 18] was 30, the “Plant response rating, Nutsedge, Purple” value [8, 19] was 20 and the “Plant response rating, Nutsedge, Purple” value [8, 20] was 0. For the same compound, the “Plant response rating, Nutsedge, Purple” value [8, 21] was 0, the “Plant response rating, Nutsedge, Purple” value [8, 23] was 35 and the “Plant response rating, Nutsedge, Purple” value [8, 22] was 70. The “Plant response rating, Barnyardgrass” value [9, 16] was 35, the “Plant response rating, Barnyardgrass” value [9, 24] was 65 and the “Plant response rating, Barnyardgrass” value [9, 18] was 75. The “Plant response rating, Barnyardgrass” value [9, 19] was 70, the “Plant response rating, Barnyardgrass” value [9, 20] was 0 and the “Plant response rating, Barnyardgrass” value [9, 21] was 0. The “Plant response rating, Barnyardgrass” value [9, 23] was 5, the “Plant response rating, Barnyardgrass” value [9, 22] was 75 and the “Plant response rating, Bluegrass” value [10, 16] was 0. The “Plant response rating, Bluegrass” value [10, 24] was 0, the “Plant response rating, Bluegrass” value [10, 18] was 0 and the “Plant response rating, Bluegrass” value [10, 19] was 0. The “Plant response rating, Bluegrass” value [10, 20] was 0, the “Plant response rating, Bluegrass” value [10, 21] was 0 and the “Plant response rating, Bluegrass” value [10, 23] was 0. For the same compound, the “Plant response rating, Bluegrass” value [10, 22] was 0, the “Plant response rating, Foxtail, Green” value [11, 16] was 20 and the “Plant response rating, Foxtail, Green” value [11, 17] was 35. The “Plant response rating, Foxtail, Green” value [11, 18] was 80, the “Plant response rating, Foxtail, Green” value [11, 19] was 65 and the “Plant response rating, Foxtail, Green” value [11, 20] was 0. The “Plant response rating, Foxtail, Green” value [11, 21] was 0, the “Plant response rating, Foxtail, Green” value [11, 23] was 0 and the “Plant response rating, Foxtail, Green” value [11, 22] was 5. The “Plant response rating, Quackgrass” value [12, 16] was 0, the “Plant response rating, Quackgrass” value [12, 17] was 5 and the “Plant response rating, Quackgrass” value [12, 18] was 5. For the same compound, the “Plant response rating, Quackgrass” value [12, 19] was 5, the “Plant response rating, Quackgrass” value [12, 20] was 0 and the “Plant response rating, Quackgrass” value [12, 21] was 0. The “Plant response rating, Quackgrass” value [12, 22] was 0, the “Plant response rating, Purslane” value [13, 17] was 50 and the “Plant response rating, Purslane” value [13, 18] was 75. For the same compound, the “Plant response rating, Purslane” value [13, 19] was 75, the “Plant response rating, Purslane” value [13, 20] was 0 and the “Plant response rating, Purslane” value [13, 21] was 0. The “Plant response rating, Purslane” value [13, 23] was 60, the “Plant response rating, Purslane” value [13, 22] was 100 and the “Plant response rating, Ragweed” value [14, 16] was 0. The “Plant response rating, Ragweed” value [14, 17] was 0, the “Plant response rating, Ragweed” value [14, 18] was 5 and the “Plant response rating, Ragweed” value [14, 19] was 0. The “Plant response rating, Ragweed” value [14, 20] was 0, the “Plant response rating, Ragweed” value [14, 21] was 0 and the “Plant response rating, Ragweed” value [14, 22] was 0. The “Plant response rating, Sowthistle” value [15, 16] was 35, the “Plant response rating, Sowthistle” value [15, 17] was 65 and the “Plant response rating, Sowthistle” value [15, 18] was 90. The “Plant response rating, Sowthistle” value [15, 19] was 70, the “Plant response rating, Sowthistle” value [15, 20] was 0 and the “Plant response rating, Sowthistle” value [15, 21] was 0. The “Plant response rating, Sowthistle” value [15, 22] was 0.
